Measurements reported in the NIST ThermoML archive (doi:10.1021/je201289w).
± gives the expanded uncertainty stated by the source.

How the values were obtained:
[1] = 101.33 kPa, Liquid, Vibrating tube method
[2] = refractive index (Na D-line) (dimensionless); conditions: 101.33 kPa, Liquid, Standard Abbe refractometry

Row | SMILES | mass density ([1]; 283.15 K) [kg/m3] | mass density ([1]; 288.15 K) [kg/m3] | mass density ([1]; 293.15 K) [kg/m3] | mass density ([1]; 298.15 K) [kg/m3] | mass density ([1]; 303.15 K) [kg/m3] | mass density ([1]; 308.15 K) [kg/m3] | mass density ([1]; 313.15 K) [kg/m3] | mass density ([1]; 318.15 K) [kg/m3] | mass density ([1]; 323.15 K) [kg/m3] | mass density ([1]; 328.15 K) [kg/m3] | mass density ([1]; 333.15 K) [kg/m3] | mass density ([1]; 338.15 K) [kg/m3] | mass density ([1]; 343.15 K) [kg/m3] | mass density ([1]; 348.15 K) [kg/m3] | mass density ([1]; 353.15 K) [kg/m3] | refractive index ([2]; 283.15 K) | refractive index ([2]; 288.15 K) | refractive index ([2]; 293.15 K) | refractive index ([2]; 298.15 K) | refractive index ([2]; 303.15 K) | other results
1 | CCCCn1cc[n+](C)c1.O=S(=O)([N-]S(=O)(=O)C(F)(F)C(F)(F)C(F)(F)C(F)(F)F)C(F)(F)C(F)(F)C(F)(F)C(F)(F)F | 1629.5 ± 3.1 | 1623.4 ± 3.1 | 1617.3 ± 3.1 | 1611.1 ± 3.1 | 1605 ± 3 | 1599.1 ± 3 | 1593.2 ± 3 | 1587.4 ± 3 | 1581.6 ± 2.9 | 1575.8 ± 2.9 | 1570 ± 2.9 | 1564.2 ± 2.9 | 1558.4 ± 2.9 | 1552.6 ± 2.8 | 1546.8 ± 2.8 | 1.39249 ± 0.00064 | 1.39104 ± 0.00064 | 1.38955 ± 0.00064 | 1.38807 ± 0.00064 | 1.38662 ± 0.00064 | refractive index ([2]; 308.15 K): 1.38516 ± 0.00064; refractive index ([2]; 313.15 K): 1.38367 ± 0.00064; refractive index ([2]; 318.15 K): 1.38222 ± 0.00064; refractive index ([2]; 323.15 K): 1.38078 ± 0.00064; refractive index ([2]; 328.15 K): 1.3793 ± 0.00064; refractive index ([2]; 333.15 K): 1.37783 ± 0.00064; refractive index ([2]; 338.15 K): 1.37638 ± 0.00063; refractive index ([2]; 343.15 K): 1.37496 ± 0.00063; refractive index ([2]; 348.15 K): 1.3735 ± 0.00064; refractive index ([2]; 353.15 K): 1.37206 ± 0.00063
2 | CCC[N+]1(C)CCCC1.O=S(=O)([N-]S(=O)(=O)C(F)(F)F)C(F)(F)F | 1441 ± 2.4 | 1436.4 ± 2.4 | 1431.9 ± 2.4 | 1427.4 ± 2.4 | 1422.8 ± 2.4 | 1418.3 ± 2.4 | 1413.8 ± 2.3 | 1409.3 ± 2.3 | 1404.8 ± 2.3 | 1400.4 ± 2.3 | 1396 ± 2.3 | 1391.6 ± 2.3 | 1387.2 ± 2.2 | 1382.9 ± 2.2 | 1378.6 ± 2.2 | 1.42474 ± 0.00063 | 1.42336 ± 0.00063 | 1.42201 ± 0.00063 | 1.42064 ± 0.00063 | 1.41925 ± 0.00063 | refractive index ([2]; 308.15 K): 1.41792 ± 0.00063; refractive index ([2]; 313.15 K): 1.41656 ± 0.00063; refractive index ([2]; 318.15 K): 1.41519 ± 0.00063; refractive index ([2]; 323.15 K): 1.41389 ± 0.00063; refractive index ([2]; 328.15 K): 1.41252 ± 0.00063; refractive index ([2]; 333.15 K): 1.41119 ± 0.00063; refractive index ([2]; 338.15 K): 1.40986 ± 0.00063; refractive index ([2]; 343.15 K): 1.40853 ± 0.00063; refractive index ([2]; 348.15 K): 1.40718 ± 0.00062; refractive index ([2]; 353.15 K): 1.40589 ± 0.00062
3 | CCn1cc[n+](C)c1.O=S(=O)([N-]S(=O)(=O)C(F)(F)F)C(F)(F)F | 1533.8 ± 2.8 | 1528.7 ± 2.7 | 1523.6 ± 2.7 | 1518.5 ± 2.7 | 1513.4 ± 2.7 | 1508.4 ± 2.7 | 1503.3 ± 2.7 | 1498.3 ± 2.6 | 1493.3 ± 2.6 | 1488.4 ± 2.6 | 1483.4 ± 2.6 | 1478.5 ± 2.6 | 1473.6 ± 2.5 | 1468.7 ± 2.5 | 1463.9 ± 2.5 | 1.42738 ± 0.00063 | 1.42594 ± 0.00063 | 1.42451 ± 0.00063 | 1.42309 ± 0.00063 | 1.42166 ± 0.00063 | refractive index ([2]; 308.15 K): 1.42022 ± 0.00063; refractive index ([2]; 313.15 K): 1.41881 ± 0.00063; refractive index ([2]; 318.15 K): 1.4174 ± 0.00063; refractive index ([2]; 323.15 K): 1.41597 ± 0.00063; refractive index ([2]; 328.15 K): 1.41458 ± 0.00063; refractive index ([2]; 333.15 K): 1.41319 ± 0.00063; refractive index ([2]; 338.15 K): 1.41177 ± 0.00063; refractive index ([2]; 343.15 K): 1.41037 ± 0.00063; refractive index ([2]; 348.15 K): 1.40902 ± 0.00063; refractive index ([2]; 353.15 K): 1.4076 ± 0.00063
4 | CCn1cc[n+](C)c1.N#CN=C=[N-] [1-ethyl-3-methylimidazolium dicyanamide] | 1111.4 ± 1.4 | 1107.9 ± 1.4 | 1104.6 ± 1.4 | 1101.2 ± 1.4 | 1097.9 ± 1.3 | 1094.6 ± 1.3 | 1091.3 ± 1.3 | 1088 ± 1.3 | 1084.8 ± 1.3 | 1081.5 ± 1.3 | 1078.3 ± 1.3 | 1075.2 ± 1.3 | 1072 ± 1.3 | 1068.9 ± 1.3 | 1065.8 ± 1.3 | 1.51774 ± 0.00066 | 1.51605 ± 0.00066 | 1.51441 ± 0.00065 | 1.51278 ± 0.00065 | 1.51121 ± 0.00065 | refractive index ([2]; 308.15 K): 1.50963 ± 0.00065; refractive index ([2]; 313.15 K): 1.50808 ± 0.00064; refractive index ([2]; 318.15 K): 1.50655 ± 0.00064; refractive index ([2]; 323.15 K): 1.50502 ± 0.00064; refractive index ([2]; 328.15 K): 1.50351 ± 0.00065; refractive index ([2]; 333.15 K): 1.50191 ± 0.00065; refractive index ([2]; 338.15 K): 1.5003 ± 0.00065; refractive index ([2]; 343.15 K): 1.49865 ± 0.00065; refractive index ([2]; 348.15 K): 1.49708 ± 0.00064; refractive index ([2]; 353.15 K): 1.49557 ± 0.00064
5 | CCOS(=O)(=O)[O-].CCn1cc[n+](C)c1 [1-ethyl-3-methylimidazolium ethyl sulfate] | 1247.7 ± 1.8 | 1244.3 ± 1.8 | 1241 ± 1.8 | 1237.6 ± 1.8 | 1234.3 ± 1.7 | 1231 ± 1.7 | 1227.6 ± 1.7 | 1224.3 ± 1.7 | 1220.9 ± 1.7 | 1217.6 ± 1.7 | 1214.2 ± 1.7 | 1210.9 ± 1.7 | 1207.6 ± 1.7 | 1204.2 ± 1.7 | 1200.9 ± 1.6 | 1.48317 ± 0.00062 | 1.48185 ± 0.00062 | 1.48053 ± 0.00062 | 1.47921 ± 0.00062 | 1.47789 ± 0.00062 | refractive index ([2]; 308.15 K): 1.47657 ± 0.00062; refractive index ([2]; 313.15 K): 1.47528 ± 0.00062; refractive index ([2]; 318.15 K): 1.47395 ± 0.00063; refractive index ([2]; 323.15 K): 1.47262 ± 0.00062; refractive index ([2]; 328.15 K): 1.4713 ± 0.00063; refractive index ([2]; 333.15 K): 1.46994 ± 0.00063; refractive index ([2]; 338.15 K): 1.4685 ± 0.00063; refractive index ([2]; 343.15 K): 1.46723 ± 0.00062; refractive index ([2]; 348.15 K): 1.46596 ± 0.00062; refractive index ([2]; 353.15 K): 1.46468 ± 0.00062
